In ChEMBL document CHEMBL5579877, “Design and Evaluation of 3-Phenyloxetane Derivative Agonists of the Glucagon-Like Peptide-1 Receptor” (J Med Chem, 2024):
The source made the active and inactive calls. The calls are words filed in the database; no cut-off is given here.

Experiments:
[1] = AUC in ICR mouse at 2 mg/kg, iv by LC-MS/MS analysis; type: ADME, organism-based; settings: in vivo
[2] = Oral clearance in rat at 5 mg/kg, po by LC-MS/MS analysis; type: ADME, organism-based; settings: in vivo
[3] = molecular target: Cytochrome P450 2C9 (Homo sapiens, UniProt P11712); assay: Inhibition of CYP2C9 in human liver microsomes using diclofenac as substrate preincubated for 5 mins followed by NADPH addition and measured after 10 mins by LC-MS/MS analysis; type: ADME, Microsome
Chain of Cytochrome P450 2C9 (P11712 whole entry): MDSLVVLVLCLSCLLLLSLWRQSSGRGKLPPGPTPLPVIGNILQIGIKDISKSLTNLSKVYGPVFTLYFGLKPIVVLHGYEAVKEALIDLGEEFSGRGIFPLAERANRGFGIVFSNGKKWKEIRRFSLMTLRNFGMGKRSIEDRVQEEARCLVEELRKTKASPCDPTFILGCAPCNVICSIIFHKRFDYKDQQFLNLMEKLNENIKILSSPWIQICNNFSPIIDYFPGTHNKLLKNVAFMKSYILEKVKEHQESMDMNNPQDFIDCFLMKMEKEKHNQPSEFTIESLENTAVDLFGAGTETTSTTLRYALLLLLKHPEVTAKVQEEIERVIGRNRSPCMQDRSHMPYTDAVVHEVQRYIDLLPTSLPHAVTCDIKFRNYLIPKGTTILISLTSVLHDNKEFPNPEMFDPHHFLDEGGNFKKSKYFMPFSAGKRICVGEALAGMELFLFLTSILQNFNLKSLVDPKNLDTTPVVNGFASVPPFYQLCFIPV

[4] = Oral bioavailability in ICR mouse at 5 mg/kg by LC-MS/MS analysis; type: ADME, organism-based; settings: in vivo
[5] = molecular target: T1, Cytochrome P450 3A4 (Homo sapiens, UniProt P08684); assay: Inhibition of CYP3A4 in human liver microsomes using testosterone as substrate preincubated for 5 mins followed by NADPH addition and measured after 5 mins by LC-MS/MS analysis; type: ADME, Microsome
T1 sequence (P08684 whole entry): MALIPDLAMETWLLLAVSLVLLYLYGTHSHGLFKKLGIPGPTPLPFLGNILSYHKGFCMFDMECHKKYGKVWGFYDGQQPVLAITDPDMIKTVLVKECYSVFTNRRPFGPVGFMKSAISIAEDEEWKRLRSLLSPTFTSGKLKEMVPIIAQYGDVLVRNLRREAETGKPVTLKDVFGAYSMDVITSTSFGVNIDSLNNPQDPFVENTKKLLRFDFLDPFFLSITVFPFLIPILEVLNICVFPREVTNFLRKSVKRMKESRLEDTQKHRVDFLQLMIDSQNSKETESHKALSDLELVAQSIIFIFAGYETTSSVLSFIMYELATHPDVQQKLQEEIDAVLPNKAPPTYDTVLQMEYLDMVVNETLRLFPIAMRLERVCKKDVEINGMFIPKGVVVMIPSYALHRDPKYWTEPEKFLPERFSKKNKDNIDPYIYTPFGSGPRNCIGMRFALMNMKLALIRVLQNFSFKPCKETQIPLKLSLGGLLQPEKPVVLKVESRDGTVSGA

[6] = Half-life in rat at 5 mg/kg, po by LC-MS/MS analysis; type: ADME, organism-based; settings: in vivo
[7] = Apparent volume of distribution in rat at 2 mg/kg, iv by LC-MS/MS analysis; type: ADME, organism-based; settings: in vivo, read-out: Vz
[8] = molecular target: Cytochrome P450 2C19 (Homo sapiens, UniProt P33261); assay: Inhibition of CYP2C19 in human liver microsomes using S-mephenytoin as substrate preincubated for 5 mins followed by NADPH addition and measured after 45 mins by LC-MS/MS analysis; type: ADME, Microsome
Chain of Cytochrome P450 2C19 (P33261 whole entry): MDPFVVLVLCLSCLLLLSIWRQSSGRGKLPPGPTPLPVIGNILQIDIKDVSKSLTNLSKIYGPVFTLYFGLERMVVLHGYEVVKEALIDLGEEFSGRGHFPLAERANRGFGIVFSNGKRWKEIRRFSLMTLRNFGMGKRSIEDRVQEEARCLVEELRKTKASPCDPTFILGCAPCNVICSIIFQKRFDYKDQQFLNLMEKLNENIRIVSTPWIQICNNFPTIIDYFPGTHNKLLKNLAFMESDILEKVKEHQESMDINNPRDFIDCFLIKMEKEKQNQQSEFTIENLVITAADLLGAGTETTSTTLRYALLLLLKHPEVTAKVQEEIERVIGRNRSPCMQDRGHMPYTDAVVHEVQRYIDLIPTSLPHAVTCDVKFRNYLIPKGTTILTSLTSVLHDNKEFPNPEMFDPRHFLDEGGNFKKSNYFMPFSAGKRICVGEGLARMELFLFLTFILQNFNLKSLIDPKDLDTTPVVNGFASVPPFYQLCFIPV

[9] = Cmax in ICR mouse at 5 mg/kg, po by LC-MS/MS analysis; type: ADME, organism-based; settings: in vivo
[10] = Oral clearance in ICR mouse at 5 mg/kg, po by LC-MS/MS analysis; type: ADME, organism-based; settings: in vivo
[11] = Half-life in rat at 2 mg/kg, iv by LC-MS/MS analysis; type: ADME, organism-based; settings: in vivo
[12] = AUC in rat at 5 mg/kg, po by LC-MS/MS analysis; type: ADME, organism-based; settings: in vivo
[13] = Permeability across apical to basolateral in human Caco-2 cells at 10 uM incubated for 120 mins by LC-MS/MS analysis; type: ADME, cell-based; settings: read-out: permeability
[14] = molecular target: T1, Cytochrome P450 3A4; assay: Inhibition of CYP3A4 in human liver microsomes using midazolam as substrate preincubated for 5 mins followed by NADPH addition and measured after 5 mins by LC-MS/MS analysis; type: ADME, Microsome
[15] = molecular target: T2, Cytochrome P450 1A2 (Homo sapiens, UniProt P05177); assay: Inhibition of CYP1A2 in human liver microsomes using phenacetin as substrate preincubated for 5 mins followed by NADPH addition and measured after 10 mins by LC-MS/MS analysis; type: ADME, Microsome
T2 sequence (P05177 whole entry): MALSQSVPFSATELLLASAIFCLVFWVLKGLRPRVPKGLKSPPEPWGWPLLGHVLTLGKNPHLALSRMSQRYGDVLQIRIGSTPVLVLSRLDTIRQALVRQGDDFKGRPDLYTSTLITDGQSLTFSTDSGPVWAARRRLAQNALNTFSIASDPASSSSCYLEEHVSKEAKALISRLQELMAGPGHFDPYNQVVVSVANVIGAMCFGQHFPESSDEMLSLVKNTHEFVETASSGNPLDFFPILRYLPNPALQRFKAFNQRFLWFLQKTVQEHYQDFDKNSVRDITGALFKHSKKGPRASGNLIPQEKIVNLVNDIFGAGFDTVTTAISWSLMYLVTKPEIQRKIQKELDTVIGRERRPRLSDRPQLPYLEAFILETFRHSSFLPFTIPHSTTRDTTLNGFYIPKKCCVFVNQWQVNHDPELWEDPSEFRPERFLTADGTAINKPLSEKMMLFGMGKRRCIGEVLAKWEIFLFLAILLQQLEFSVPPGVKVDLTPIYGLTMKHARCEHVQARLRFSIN

[16] = Oral bioavailability in rat at 5 mg/kg by LC-MS/MS analysis; type: ADME, organism-based; settings: in vivo
[17] = Cmax in rat at 5 mg/kg, po by LC-MS/MS analysis; type: ADME, organism-based; settings: in vivo
[18] = Half-life in ICR mouse at 2 mg/kg, iv by LC-MS/MS analysis; type: ADME, organism-based; settings: in vivo
[19] = Half-life in ICR mouse at 5 mg/kg, po by LC-MS/MS analysis; type: ADME, organism-based; settings: in vivo
[20] = Cmax in cynomolgus monkey at 2 mg/kg, iv; type: ADME, organism-based, Macaca fascicularis; settings: in vivo
[21] = molecular target: Cytochrome P450 2D6 (Homo sapiens, UniProt P10635); assay: Inhibition of CYP2D6 in human liver microsomes using dextromethorphan as substrate preincubated for 5 mins followed by NADPH addition and measured after 20 mins by LC-MS/MS analysis; type: ADME, Microsome
Chain of Cytochrome P450 2D6 (P10635 whole entry): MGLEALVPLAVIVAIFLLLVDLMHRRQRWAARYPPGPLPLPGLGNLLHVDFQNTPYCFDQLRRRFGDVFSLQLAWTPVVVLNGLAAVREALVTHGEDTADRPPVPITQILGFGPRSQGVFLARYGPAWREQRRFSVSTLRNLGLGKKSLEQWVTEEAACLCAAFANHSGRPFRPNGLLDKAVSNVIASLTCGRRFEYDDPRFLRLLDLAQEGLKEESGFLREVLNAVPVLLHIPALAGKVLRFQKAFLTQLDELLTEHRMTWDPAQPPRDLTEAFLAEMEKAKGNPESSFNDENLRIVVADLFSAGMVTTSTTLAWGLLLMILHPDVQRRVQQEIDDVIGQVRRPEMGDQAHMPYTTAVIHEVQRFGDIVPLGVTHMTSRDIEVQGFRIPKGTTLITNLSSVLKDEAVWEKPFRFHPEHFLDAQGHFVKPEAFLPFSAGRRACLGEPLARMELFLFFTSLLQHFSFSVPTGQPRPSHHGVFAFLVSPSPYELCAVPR

[22] = Tmax in cynomolgus monkey at 2 mg/kg, iv; type: ADME, organism-based, Macaca fascicularis; settings: in vivo
[23] = Apparent volume of distribution in ICR mouse at 2 mg/kg, iv by LC-MS/MS analysis; type: ADME, organism-based; settings: in vivo, read-out: Vz
[24] = test system: Mus musculus; assay: Reduction in blood glucose level in human GLP-1R knock-in mouse at 1 mg/kg, po pretreated for 1 to 4 hrs followed by glucose addition and measured upto 120 mins by glucose meter; type: functional, organism-based; settings: time 180-360 min
[25] = Metabolic stability in human liver microsomes assessed as half life at […] incubated upto 45 mins in presence of NADPH by LC-MS/MS analysis; type: ADME, Microsome
[26] = molecular target: T3, Cytochrome P450 2B6 (Homo sapiens, UniProt P20813); assay: Inhibition of CYP2B6 in human liver microsomes using bupropion as substrate preincubated for 5 mins followed by NADPH addition and measured after 10 mins by LC-MS/MS analysis; type: ADME, Microsome
T3 sequence (P20813 whole entry): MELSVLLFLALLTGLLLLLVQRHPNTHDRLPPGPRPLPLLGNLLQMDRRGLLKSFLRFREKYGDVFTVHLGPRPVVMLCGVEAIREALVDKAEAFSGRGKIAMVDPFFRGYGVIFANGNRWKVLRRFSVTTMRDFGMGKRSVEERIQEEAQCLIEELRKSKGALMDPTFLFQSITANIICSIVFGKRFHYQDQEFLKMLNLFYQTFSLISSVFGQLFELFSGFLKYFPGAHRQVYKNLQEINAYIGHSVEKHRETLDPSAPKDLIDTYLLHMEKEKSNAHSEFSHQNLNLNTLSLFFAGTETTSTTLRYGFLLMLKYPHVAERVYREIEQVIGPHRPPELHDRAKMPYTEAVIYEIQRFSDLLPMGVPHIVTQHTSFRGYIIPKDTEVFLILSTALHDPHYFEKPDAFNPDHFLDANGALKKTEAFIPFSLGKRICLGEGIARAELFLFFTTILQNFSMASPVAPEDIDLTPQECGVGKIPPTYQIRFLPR

[27] = Oral bioavailability in cynomolgus monkey at 20 mg/kg; type: ADME, organism-based, Macaca fascicularis; settings: in vivo
[28] = Permeability across basolateral to apical side in human Caco-2 cells at 10 uM incubated for 120 mins by LC-MS/MS analysis; type: ADME, cell-based; settings: read-out: permeability

Row | Compound | AUC [1] [ng·h/mL] | CL/F [2] [mL/min/kg] | IC50 [3] [µM] | bioavailability [4] [%] | IC50 [5] [µM] | half-life [6] [h] | Vd [7] [L/kg] | IC50 [8] [µM] | Cmax [9] [ng/mL] | CL/F [10] [mL/min/kg] | half-life [11] [h] | AUC [12] [ng·h/mL] | Papp A→B at 2 h, 10 µM [13] [×10⁻⁶ cm/s] | IC50 [14] [µM] | IC50 [15] [µM] | bioavailability [16] [%] | Cmax [17] [ng/mL] | half-life [18] [h] | half-life [19] [h] | Cmax [20] [nM] | further results
1 | O=C(O)c1ccc2nc(CN3CCC(c4cccc(OCc5ccc(C6COC6)cc5F)n4)CC3)n(C[C@@H]3CCO3)c2c1 | 1670 | 52.8 | > 10 | 53.1 | > 10 | 0.84 | 1.37 | > 10 | 2090 | 41.8 | 0.21 | 180 | 3.14 | > 10 | > 10 | 12.8 | 190 | 7.04 | 3.86 | 207 | IC50 [21]: > 10 µM; Tmax [22]: 1.39 h; Vd [23]: 12.2 L/kg; Activity [24]: Active; half-life [25]: 2.17 h; IC50 [26]: > 10 µM; bioavailability [27]: 32.8%; Papp B→A at 2 h, 10 µM [28]: 16.5 ×10⁻⁶ cm/s
2 | N#Cc1ccc(COc2cccc(C3CCN(Cc4nc5ccc(C(=O)O)cc5n4C[C@@H]4CCO4)CC3)n2)c(F)c1 [DANUGLIPRON] | 1670 | 554 | > 10 | 54.2 | > 10 | 1.33 | 1.98 | > 10 | 2840 | 36.5 | 0.32 | 170 | 3.93 | > 10 | > 10 | 10.2 | 110 | 2.46 | 1.62 | 670 | IC50 [21]: > 10 µM; Tmax [22]: 1.21 h; Vd [23]: 4.26 L/kg; Activity [24]: Active; half-life [25]: 1.87 h; IC50 [26]: > 10 µM; bioavailability [27]: 3.41%; Papp B→A at 2 h, 10 µM [28]: 21.7 ×10⁻⁶ cm/s
